Measurements published in patent US12251459B2, “Compositions, formulations, and methods for hair treatment” (Oddity Labs, LLC, priority 2022, dated 2025).

How the values were obtained:
[1] = test system: human hair follicle dermal papilla cells (hFDPC); experiment: Human follicle dermal papilla cells (hFDPC) proliferation assay; type: cell-based; conditions: hFDPCs supplemented with BIO, BMP-2 and FGFβ
Source text: In Table 8, A represents less than 20% of increased proliferation of hFDPCs, B represents 20-40%, and C represents larger than 40% of increased proliferation of hFDPCs.

[2] = test system: follicle dermal papilla cells; experiment: Reactive oxygen species (ROS) activity in follicle dermal papilla cells; type: cell-based; conditions: 5 μg/mL, 24 hr, relative to vehicle control (0.1% v/v DMSO)
Experimental: Normalized reactive oxygen species (ROS) activity in follicle dermal papilla cells were analyzed after treatment with 5 μg/mL example compounds relative to vehicle control (0.1% v/v DMSO) after 24 hr. The increase in ROS levels is harmful to cell homeostasis, structures, and functions and results in oxidative stress.

TK.6 lymphoblasts = experiment: TK.6 micronucleus assay; type: cell-based
Experimental: (§1) The safety/toxicology profiles of a compound or salt of the present disclosure was evaluated via a series of in vitro genotoxicity assays, including the SOS-chromotest to determine bacterial genotoxicity, and the TK.6 micronucleus assay to determine chromosomal damage and forward mutations. Standard reactive oxygen species (ROS) and caspase 3/7 assay were conducted to determine general cellular toxicity. Moreover, a series of sensitization tests were conducted to predict any potential skin sensitivity. These include the direct peptide reactivity assay to evaluate haptenization, the KeratinoSens reporter assay to determine potential sensitivity via the activation of a cytoprotective pathway, and an immunological assay using human immature monocyte-derived dendritic cells to evaluate any potential immunogenicity.
TK.6 lymphoblasts are a well-studied cell line commonly used for gene mutation analyses. They are heterozygous for the thymidine kinase gene (TK) and enable the detection of forward mutations and chromosomal damage, which manifests as micronuclei and are detectable via flow cytometry.
TK.6 cells were dosed with the example compounds or a vehicle control (0.1% v/v DMSO) and cultured with or without S9 metabolic activation for 24 hr. […] Methyl methanesulfonate, a known genotoxic, alkylating agent was used as a positive control for micronuclei detection.
The micronucleus assay was also performed to determine if the compounds are genotoxic by evaluating the presence of micronuclei. […] In combination. […] I-17 elicited genotoxicity at >3.125 μg/mL.

bacteria = experiment: SOS chromotest (bacteria-based genotoxicity test, β-galactosidase activity); type: cell-based; conditions: varying concentrations; 4-NQ as known genotoxin
Experimental: The SOS chromotest is a well-established bacteria-based test for genotoxicity.
as §1

HepG2 cells = experiment: Caspase 3/7 activity in HepG2 cells; type: cell-based; conditions: HepG2, >2-log concentration range, versus % v/v-matched DMSO
Experimental: (§2) Cells were treated with either the example compounds or vehicle control containing correspondingly % v/v-matched amounts of DMSO spanning a >2-log concentration range. Data represents mean±s.d. and representative of at least 2 experimental replicates.
as §2, with “HepG2 cells are an immortalized liver cell line commonly used to study apoptosis induced by small molecules. Cells” for “Cells”

Nrf2-ARE pathway = experiment: KeratinoSens Nrf2-ARE reporter assay (ARE-luciferase); type: cell-based; conditions: cinnamic aldehyde as known sensitizing compound
Experimental: as §1
The Nrf2-ARE pathway is a master regulator of cytoprotective responses to oxidative stress, and is an early indicator of skin sensitization. Nrf2 (nuclear factor erythroid 2-related factor) is a transcription factor that binds to antioxidant responsive elements (ARE). By fusing ARE to the light-producing luciferase gene, a KeratinoSens Nrf2-ARE reporter assay was performed whereby luciferase signal is directly correlated to Nrf2-ARE pathway activation. Normalized ARE-luciferase activity was measured using a known sensitizing compound (cinnamic aldehyde) and example compounds.

[3] = Clinical consumer perception study; type: in vivo, human
Experimental: The clinical test was performed by Eurofins|CRL, Inc. The test followed established, standardized procedures for clinical testing designed to ensure the well-being of clinical study subjects and the generation of reliable study data. Subjects were female and ranged in age from 27-65 years. Subjects used a simple, water-based formula containing an example compound, VII-3 (at 0.02% v/v) every 2 days in the morning or night on dry or towel-dried hair. Approximately 2 mL was applied directly to the hairline. No randomization was required for the study and subjects were blinded to the name of the test material.
Photographs of subjects' hair were taken 6 weeks after the treatment with the representative compounds (FIG. 6). Subjects were female and ranged in age from 27-65 years. Subjects used a simple, water-based formula containing an example compound VII-3 (at 0.02% v/v) every 2 days in the morning or night on dry or towel-dried hair. Approximately 2 mL was applied directly to the hairline. No randomization was required for the study and subjects were blinded to the name of the test material. FIG. 6. highlights specific regions of the included participants' scalps, juxtaposing pictures taken before and after the study. Based on clinical surveys, 97% of women reported an improvement in their hair's appearance while 82% reported increased hair growth and thickness.
After the conclusion of the study, subjects completed a Consumer perception questionnaire. Table 24 includes percentages of each response for the corresponding prompt in the questionnaire. The specific response choice is specified within the parentheses below the percentage.

[4] = test system: Human follicle papilla cells; experiment: Functional stability: follicle papilla cell proliferation after pH and temperature pre-treatment of the compound; type: cell-based; conditions: prepared in DMSO, DMI or 1:1 DMI/ethanol, diluted in pH-adjusted water, varying temperatures, 7 days; cells dosed 5 μg/mL, 48 hr
Experimental: Compound VII-3 was prepared in various solvents (DMSO; dimethyl sulfoxide, DMI; dimethyl isosorbide, or a 1:1 mixture of dimethyl isosorbide and ethanol), the diluted in pH-adjusted water and left at varying temperatures for 7 days. Human follicle papilla cells were dosed at 5 μg/mL with the example compound and further supplemented with 6-bromoindirubin-39-Oxime (BIO), recombinant bone morphogenetic protein-2 (BMP-2), and basic fibroblast growth factor (FGFβ), whose combination was previously found to preserve in vivo dermal papilla gene signatures. Normalized proliferation follicle papilla cell proliferation was analyzed after 48 hr following the treatment with the example compound pre-treated across a range of pH conditions (FIG. 7A) and temperature conditions (FIG. 7B). Data represents mean±s.d. and representative of n=2 donors.

[5] = response: I haven't noticed a change

C=CCc1cc(/C=C2\C(=O)NC(=S)N(c3ccccc3OC)C2=O)cc(OCC)c1O [I-18]
Percent Increase Proliferation of hFDPCs (%) [1]: B (B represents 20-40%) | Normalized reactive oxygen species (ROS) activity [2]: higher than other compounds

CCC(=O)N1CCN(c2nnc(-c3ccc(C)cc3)c3ccccc23)CC1 [II-4, 1-Propanone, 1-[4-[4-(4-methylphenyl)-1-phthalazinyl]-1-piperazinyl]-]
Percent Increase Proliferation of hFDPCs (%) [1]: B (B represents 20-40%) | micronuclei formation / genotoxic effect in TK.6 cells (TK.6 lymphoblasts): do not promote any micronuclei formation | genotoxic effects in SOS chromotest (normalized β-galactosidase activity) (bacteria): did not exhibit any genotoxic effects | Normalized caspase 3/7 activity (HepG2 cells): did not exhibit any caspase activation

COC(=O)c1c(S(C)(=O)=O)[nH]c(-c2ccccc2)nc1=O [VII-1, 5- Pyrimidinecarboxylic acid, 1,4-dihydro-6-(methylsulfonyl)-4-oxo-2-phenyl-, methyl ester]
Percent Increase Proliferation of hFDPCs (%) [1]: C (C represents larger than 40% of increased proliferation of hFDPCs) | micronuclei formation / genotoxic effect in TK.6 cells (TK.6 lymphoblasts): do not promote any micronuclei formation | genotoxic effects in SOS chromotest (normalized β-galactosidase activity) (bacteria): did not exhibit any genotoxic effects | Normalized caspase 3/7 activity (HepG2 cells): did not exhibit any caspase activation | sensitizing potential (normalized ARE-luciferase activity) (Nrf2-ARE pathway): exhibited sensitizing potential

CSc1nc(-c2ccco2)nn1S(C)(=O)=O [VII-3, 1H-1,2,4-Triazole, 3-(2-furanyl)-1-(methylsulfonyl)-5-(methylthio)-]
Percent Increase Proliferation of hFDPCs (%) [1]: B (B represents 20-40%) | genotoxic effects in SOS chromotest (normalized β-galactosidase activity) (bacteria): did not exhibit any genotoxic effects | Normalized caspase 3/7 activity (HepG2 cells): did not exhibit any caspase activation | Since the beginning of the study, I have noticed a decrease of the number of hairs lost in the shower. ([3]; response: Agree): 53.1% | Since the start of the study, I can see more hair in the areas where the serum was applied. ([3]; response: Agree): 53.1% | Since the beginning of the study, I have noticed a decrease of the number of hairs lost in the shower. ([3]; response: Disagree): 6.3% | Since the start of the study, I can see more hair in the areas where the serum was applied. ([3]; response: Disagree): 3.1% | Because of the treatment I have received since the start of the study, the appearance of my hair is: ([3]; response: Fuller): 56.3% | Since the beginning of the study, I have noticed a decrease of the number of hairs lost in the shower. [3, 5]: 21.9% | Since the start of the study, I can see more hair in the areas where the serum was applied. [3, 5]: 31.3% | Since the start of the study, how effective do you think the treatment has been in increasing your hair growth/thickness? ([3]; response: Not effective at all): 0% | Since the start of the study, how effective do you think the treatment has been in slowing down your hair loss? ([3]; response: Not effective at all): 3.1% | Since the start of the study, how effective do you think the treatment has been in increasing your hair growth/thickness? ([3]; response: Not very effective): 18.8% | Since the start of the study, how effective do you think the treatment has been in slowing down your hair loss? ([3]; response: Not very effective): 15.6% | Since the start of the study, how effective do you think the treatment has been in increasing your hair growth/thickness? ([3]; response: Somewhat effective): 71.9% | Since the start of the study, how effective do you think the treatment has been in slowing down your hair loss? ([3]; response: Somewhat effective): 53.1% | Because of the treatment I have received since the start of the study, the appearance of my hair is: ([3]; response: Stronger): 21.9% | Since the beginning of the study, I have noticed a decrease of the number of hairs lost in the shower. ([3]; response: Strongly Agree): 18.8% | Since the start of the study, I can see more hair in the areas where the serum was applied. ([3]; response: Strongly Agree): 12.5% | Since the beginning of the study, I have noticed a decrease of the number of hairs lost in the shower. ([3]; response: Strongly Disagree): 0% | Since the start of the study, I can see more hair in the areas where the serum was applied. ([3]; response: Strongly Disagree): 0% | Because of the treatment I have received since the start of the study, the appearance of my hair is: ([3]; response: Thicker): 18.8% | Because of the treatment I have received since the start of the study, the appearance of my hair is: ([3]; response: Thinner): 3.1% | Since the start of the study, how effective do you think the treatment has been in increasing your hair growth/thickness? ([3]; response: Very effective): 9.4% | Since the start of the study, how effective do you think the treatment has been in slowing down your hair loss? ([3]; response: Very effective): 28.1% | Because of the treatment I have received since the start of the study, the appearance of my hair is: ([3]; response: Weaker): 0% | Subjects with tight hairstyles who noticed less shedding ([3]; water-based formula 0.02% v/v every 2 days, 6 weeks, 32 female subjects): 28/32 (87%) | Adverse effects ([3]; water-based formula 0.02% v/v every 2 days, 6 weeks, 32 subjects completed): 0/32 (0%) | functional stability (normalized follicle papilla cell proliferation after pre-treatment of the compound) [4]: functionally stable across physiologically-relevant pH and temperature ranges

COc1ccc(CCCc2nc3ccccc3[nH]2)cc1 [VII-14, 1H-Benzimidazole, 2-[3-(4-methoxyphenyl)propyl]-]
Percent Increase Proliferation of hFDPCs (%) [1]: A (A represents less than 20% of increased proliferation of hFDPCs) | micronuclei formation / genotoxic effect in TK.6 cells (TK.6 lymphoblasts): do not promote any micronuclei formation | Normalized caspase 3/7 activity (HepG2 cells): did not exhibit any caspase activation
